Data from patent US9493441B2, “Acyclic cyanoethylpyrazoles as janus kinase inhibitors” (Merck Sharp & Dohme Corp., priority 2011, dated 2016).
Read-outs that look alike come from different tables or passages of the source.

Tests used:
JAK2 = JAK2 (Homo sapiens (Human), UniProt O60674); experiment: Jak biochemical HTRF assay, JAK2
JAK1 = JAK1 (Homo sapiens (Human), UniProt P23458); experiment: Jak biochemical HTRF assay, JAK1
[1] = JAK2 IC50 (nM), recombinant GST-tagged catalytic domain, [ATP] […]
[2] = JAK1 IC50 (nM), recombinant GST-tagged catalytic domain, [ATP] 31.8 μM
[3] = read-out: JAK2 IC50, recombinant GST-tagged catalytic domain, [ATP] […]
[4] = read-out: JAK1 IC50, recombinant GST-tagged catalytic domain, [ATP] 31.8 μM

Sequence of JAK2 (O60674 849-1124): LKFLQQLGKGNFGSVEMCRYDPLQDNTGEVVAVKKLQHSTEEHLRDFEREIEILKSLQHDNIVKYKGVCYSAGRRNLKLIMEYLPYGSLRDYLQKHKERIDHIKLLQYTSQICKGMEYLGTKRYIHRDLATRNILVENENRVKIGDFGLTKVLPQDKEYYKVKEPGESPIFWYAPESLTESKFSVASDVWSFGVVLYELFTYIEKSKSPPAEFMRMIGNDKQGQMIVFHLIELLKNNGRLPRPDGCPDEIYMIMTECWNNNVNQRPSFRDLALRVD
Sequence of JAK1 (P23458 875-1153): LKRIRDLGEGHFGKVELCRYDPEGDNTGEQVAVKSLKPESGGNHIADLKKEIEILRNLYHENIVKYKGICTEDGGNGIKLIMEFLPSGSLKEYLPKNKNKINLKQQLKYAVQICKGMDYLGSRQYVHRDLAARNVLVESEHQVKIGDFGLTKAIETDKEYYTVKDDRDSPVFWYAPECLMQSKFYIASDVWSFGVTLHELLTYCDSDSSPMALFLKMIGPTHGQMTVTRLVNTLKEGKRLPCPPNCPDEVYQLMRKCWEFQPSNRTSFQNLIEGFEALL

SMILES | IC50 (JAK2; [1]) [nM] | IC50 (JAK1; [2]) [nM] | IC50 (JAK2; [3]) [nM] | IC50 (JAK1; [4]) [nM]
N#CCC(C1CCC1)n1cc(C(N)=O)c(Nc2ccccc2)n1 (centres unmarked) [Example 1-19, 1-(2-cyano-1-cydobutylethyl)-3-(phenylamino)-1H-pyrazole-4-carboxamide] | 272 | 31 |  | 
CCC(CC#N)n1cc(C(N)=O)c(Nc2ccc(C(=O)N3CCS(=O)(=O)CC3)cc2)n1 (centres unmarked) [Example 1-17, 1-[1-{cyanomethyl)propyl]-3-({4-[(1,1-dioxidothiomorpholin-4-yl)carbonyl]phenyl}amino)-1H-pyrazole-4-carboxamide] | 74 | 19 |  | 
CC(C)(C)OC(=O)N1CCC(C(CC#N)n2cc(C(N)=O)c(Nc3ccc(F)cc3)n2)CC1 (centres unmarked) [Example 3-1, tert-Butyl 4-(1-[4-carbamoyl-3-[(4-fluorophenyl)amino]-1H-pyrazol-1-yl]-2-cyanoethyl)piperidine-1-carboxylate] | 1500 | 49 |  | 
CC(C)(O)COCc1cccc(Nc2nn(C(CC#N)C3CC3)cc2C(N)=O)c1 (centres unmarked) [Example 6-1, 1-(2-Cyano-1-cyclopropylethyl)-3-({3-[(2-hydroxy-2-methylpropoxy)methyl]phenyl}amino)-1H-pyrazole-4-carboxamide] | 115 | 47 |  | 
COCC(C)OC(=O)N1CCC([C@H](CC#N)n2cc(C(N)=O)c(Nc3ccc(F)cc3)n2)CC1 (stereo partly drawn) [Example 11-9, 2-methoxy-1-methylethyl 4-[(1S)-1-{4-carbamoyl-3-[(4-fluorophenyl)amino]-1H-pyrazol-1-yl}-2-cyanoethyl]piperidine-1-carboxylate] | 1030 | 108 |  | 
CN1C(=O)c2ccc(Nc3nn(C(CC#N)C4CC4)cc3C(N)=O)cc2C1(C)C (centres unmarked) [Example 4-30, 1-(2-cyano-1-cyclopropylethyl)-3-[(2,3,3-trimethyl-1-oxo-2,3-dihydro-1H-isoindol-5-yl)amino]-1H-pyrazole-4-carboxamide] | 226 | 15 |  | 
CC(C)(C)OC(=O)N1Cc2cc(Nc3nn(C(CC#N)C4CC4)cc3C(N)=O)ccc2C1=O (centres unmarked) [Example 4-2, tert-butyl 5-{[4-carbamoyl-1-(2-cyano-1-cyclopropylethyl)-1H-pyrazol-3-yl]amino}-1-oxo-1,3-dihydro-2H-isoindole-2-carboxylate] | 35 | 2 |  | 
CC(C)(C)OC(=O)N1CCC(F)(C(CC#N)n2cc(C(N)=O)c(Nc3ccccc3)n2)CC1 (centres unmarked) [Example 3-2, tert-butyl 4-{1-[4-carbamoyl-3-(phenylamino)-1H-pyrazol-1-yl]-2-cyanoethyl}-4-fluoropiperidine-1-carboxylate] | 1500 | 99 |  | 
CC(C)(C)OC(=O)N1CCC(C(C)(CC#N)n2cc(C(N)=O)c(Nc3ccccc3)n2)CC1 (centres unmarked) [Example 3-3, tert-butyl 4-{2-[4-carbamoyl-3-(phenylamino)-1H-pyrazol-1-yl]-1-cyanopropan-2-yl}piperidine-1-carboxylate] | 236 | 5 |  | 
N#CCC(C1CC1)n1cc(C(N)=O)c(Nc2ccc(S(N)(=O)=O)cc2)n1 (centres unmarked) [Example 6-3, 1-(2-cyano-1-cyclopropylethyl]-3-[(4-sulfamoylphenyl)amino]-1H-pyrazole-4-carboxamide] | 10 | 1 |  | 
N#CCCc1cccc(Nc2nn(C(CC#N)C3CC3)cc2C(N)=O)c1 (centres unmarked) [Example 4-7, 1-(2-cyano-1-cyclopropylethyl)-3-{[3-(2-cyanoethyl)phenyl]amino}-1H-pyrazole-4-carboxamide] | 73 | 13 |  | 
N#CCC(C1CCOC1)n1cc(C(N)=O)c(Nc2ccccc2)n1 (centres unmarked) [Example 1-14, 1-[2-cyano-1-(tetrahydrofuran-3-yl)ethyl]-3-(phenylamino)-1H-pyrazole-4-carboxamide] | 1400 | 126 |  | 
N#CCC(C1CCOCC1)n1cc(C(N)=O)c(Nc2ccccc2)n1 (centres unmarked) [Example 1-9, 1-[2-cyano-1-(tetrahydro-2H-pyran-4-yl)ethyl]-3-(phenylamino)-1H-pyrazole-4-carboxamide] | 1480 | 241 |  | 
CCC(CC#N)n1cc(C(N)=O)c(Nc2ccccc2)n1 (centres unmarked) [Example 1-7, 1-[1-(cyanomethyl)propyl]-3-(phenylamino)-1H-pyrazole-4-carboxamide] | 546 | 48 |  | 
N#CCC(C1CCCC1)n1cc(C(N)=O)c(Nc2ccccc2)n1 (centres unmarked) [Example 1-20, 1-(2-cyano-1-cyclopentylethyl)-3-(phenylamino)-1H-pyrazole-4-carboxamide] | 474 | 69 |  | 
N#CCc1cccc(Nc2nn(C(CC#N)C3CC3)cc2C(N)=O)c1 (centres unmarked) [Example 4-9, 1-(2-cyano-1-cyclopropylethyl)-3-{[3-(cyanomethyl)phenyl]amino}-1H-pyrazole-4-carboxamide] | 27 |  |  | 
N#CCC(C1CC1)n1cc(C(N)=O)c(Nc2ccc3c(c2)CNC3=O)n1 (centres unmarked) [Example 7, 1-(2-Cyano-1-cyclopropylethyl)-3-[(1-oxo-2,3-dihydro-4H-isoindol-5-yl)amino]-1H-pyrazole-4-carboxamide] | 38 |  |  | 

The next lines start with the values.

IC50 (JAK2; [1]) [nM] | IC50 (JAK1; [2]) [nM] | IC50 (JAK2; [3]) [nM] | IC50 (JAK1; [4]) [nM] | SMILES
 |  | 19 | 2 | Cc1noc(-c2ccc(Nc3nn([C@H](CC#N)C4CC4)cc3C(N)=O)cc2)n1 (single isomer, unassigned) [Example 18-1, 1-[(1R or 1S)-2-cyano-1-cyclopropylethyl]-3-{[4-(3-methyl-1,2,4-oxadiazol-5-yl)phenyl]amino}-1H-pyrazole-4-carboxamide]
 |  | 15 |  | N#CC[C@H](C1CC1)n1cc(C(N)=O)c(Nc2ccc3c(c2)CNC3=O)n1 (single isomer, unassigned) [Example 19-1, 1-[(1R or 1S)-2-cyano-1-cyclopropylethyl]-3-[(1-oxo-2,3-dihydro-1H-isoindol-5-yl)amino]-1H-pyrazole-4-carboxamide]
903 | 92 |  |  | CC(C)(C)OC(=O)N1CCC(C(CC#N)n2cc(C(N)=O)c(Nc3ccc(F)cc3)n2)CC1 (single isomer, unassigned) [Example 14-3, tert-butyl 4-[(1S or 1R)-1-{4-carbamoyl-3-[(4-fluorophenyl)amino]-1H-pyrazol-1-yl}-2-cyanoethyl)piperidine-1-carboxylate]
742 | 47 |  |  | N#CCC(C1CCCC1)n1cc(C(N)=O)c(Nc2ccccc2)n1 (single isomer, unassigned) [Example 16-3, 1-[(1S or 1R)-2-cyano-1-cyclopentylethyl]-3-(phenylamino)-1H-pyrazole-4-carboxamide]
16 | 2 |  |  | N#CC[C@H](C1CC1)n1cc(C(N)=O)c(Nc2ccnc(F)c2)n1 (single isomer, unassigned) [Example 17-4, 1-[(1R or 1S)-2-cyano-1-cyclopropylethyl]-3-[(2-fluoropyridin-4-yl)amino]-1H-pyrazole-4-carboxamide]
 |  | 1130 | 224 | C[C@@H](CC#N)n1cc(C(N)=O)c(Nc2ccccc2)n1 (single isomer, unassigned) [Example 17-1, 1-[(2S or 2R)-1-cyanopropan-2-yl]-3-(phenylamino)-1H-pyrazole-4-carboxamide]
 |  | 105 |  | N#CC[C@@H](C1CC1)n1cc(C(N)=O)c(Nc2ccc3c(c2)CNC3=O)n1 (single isomer, unassigned) [Example 19-2, 1-[(1R or 1S)-2-cyano-1-cyclopropylethyl]-3-[(1-oxo-2,3-dihydro-1H-isoindol-5-yl)amino]-1H-pyrazole-4-carboxamide]
